Measurements: article PMC12583704 (Signal Transduction and Targeted Therapy, 2025)

Experiment: Phase 1 study NCT03594422: adverse events graded by NCI CTCAE v4.03
Assay type: in vivo, human
Method: Part 1 was a dose-escalation study to determine the recommended phase 2 dose (RP2D) in solid tumors. […] The initial design was a 3 + 3 dose escalation from 20 mg, but the protocol was amended to randomly enroll and assign patients to starting doses of 30, 40, and 50 mg on the basis of safety data acquired in the CML trial.[20] […] An interactive web response system was used for randomization. Part 2 was a nonrandomized study focusing on patients with SDH-deficient GISTs. […] On the basis of preliminary data from adult patients, adolescent patients with advanced wild-type GISTs were also included in Part 2. The dosage for adolescents was adjusted according to their body weights.
AEs were evaluated at each follow-up visit: on Days 1, 8, 15, and 22 during Cycles 1 and 2; and on Days 1 and 15 in Cycle 3 and all subsequent cycles, up to 30 days after the final dose. All AEs were graded according to the National Cancer Institute Common Terminology Criteria for Adverse Events v4.03. Clinical laboratory investigations for routine blood examinations and serum chemistry parameters were performed during every cycle (on Day 1), during Cycles 1 and 2 (on Days 8, 15, and 22), and 30 days after the last dose of treatment. Urinalysis, coagulation, cardiac troponin I/T, lipase, amylase, and electrocardiographic evaluations were conducted at baseline; during Cycles 1 and 2 (on Days 1 and 15); during Cycles 3, 5, 7, and 9; every three cycles after Cycle 9 (on Day 1); and 14 days after the last dose of treatment. All patients underwent tumor imaging for response assessment via computed tomography or magnetic resonance imaging at screening and every two cycles (8 weeks) until progression or discontinuation. Target and nontarget lesions were assessed per the Response Evaluation Criteria in Solid Tumors version 1.1 (RECIST v1.1).

**Q.** For `Cc1ccc(C(=O)Nc2ccc(CN3CCN(C)CC3)c(C(F)(F)F)c2)cc1C#Cc1cnc2[nH]ncc2c1` [Olverembatinib, 3-[(1H-pyrazolo[3,4-b]pyridin-5-yl)ethynyl]-4-methyl-N-{4-[(4-methylpiperazin-1-yl)methyl]-3-(trifluoromethyl)phenyl]benzamide], which “TEAE: Abdominal pain” value (20 mg (n = 3), Any grade) is on record?
**A.** Its value is 0 n (%).

**Q.** And the “TEAE: Alanine aminotransferase increased” value (20 mg (n = 3), Any grade)?
**A.** The value was 0 n (%).

**Q.** And the “TEAE: Anemia” value (20 mg (n = 3), Any grade)?
**A.** The value was 1 (33.3) n (%).

**Q.** And the “TEAE: Aspartate aminotransferase increased” value (20 mg (n = 3), Any grade)?
**A.** The value was 0 n (%).

**Q.** And the “TEAE: C-reactive protein increased” value (20 mg (n = 3), Any grade)?
**A.** The value was 0 n (%).

**Q.** And the “TEAE: Constipation” value (20 mg (n = 3), Any grade)?
**A.** Its value is 2 (66.7) n (%).

**Q.** And the “TEAE: Fatigue” value (20 mg (n = 3), Any grade)?
**A.** The value was 0 n (%).

**Q.** And the “TEAE: Hyperuricemia” value (20 mg (n = 3), Any grade)?
**A.** Its value is 2 (66.7) n (%).

**Q.** And the “TEAE: Hypoalbuminemia” value (20 mg (n = 3), Any grade)?
**A.** The value was 0 n (%).

**Q.** What about the “TEAE: Leukocyte count increased” value (20 mg (n = 3), Any grade) of the same molecule?
**A.** The value was 1 (33.3) n (%).

**Q.** And the “TEAE: Melanocytic nevus” value (20 mg (n = 3), Any grade)?
**A.** The value was 0 n (%).

**Q.** What about the “TEAE: Neutrophil count increased” value (20 mg (n = 3), Any grade) of the same molecule?
**A.** The value was 1 (33.3) n (%).

**Q.** And the “TEAE: Pyrexia” value (20 mg (n = 3), Any grade)?
**A.** The value was 0 n (%).

**Q.** And the TEAEs (20 mg (n = 3), Any grade)?
**A.** The TEAEs was 3 (100.0) n (%).

**Q.** What about the “TRAE: ALT increased” value (20 mg (n = 3), Any grade) of the same molecule?
**A.** The value was 0 n (%).

**Q.** And the “TRAE: AST increased” value (20 mg (n = 3), Any grade)?
**A.** Its value is 0 n (%).

**Q.** What about the “TRAE: Anemia” value (20 mg (n = 3), Any grade) of the same molecule?
**A.** Its value is 0 n (%).

**Q.** And the “TRAE: Blood creatinine increased” value (20 mg (n = 3), Any grade)?
**A.** The value was 0 n (%).

**Q.** What about the “TRAE: Constipation” value (20 mg (n = 3), Any grade) of the same molecule?
**A.** The value was 1 (33.3) n (%).

**Q.** And the “TRAE: Fatigue” value (20 mg (n = 3), Any grade)?
**A.** Its value is 0 n (%).

**Q.** What about the “TRAE: Hypoalbuminemia” value (20 mg (n = 3), Any grade) of the same molecule?
**A.** The value was 0 n (%).

**Q.** And the “TRAE: Leukocyte count increased” value (20 mg (n = 3), Any grade)?
**A.** Its value is 1 (33.3) n (%).

**Q.** And the “TRAE: Melanocytic nevus” value (20 mg (n = 3), Any grade)?
**A.** The value was 0 n (%).

**Q.** And the “TRAE: Neutrophil count increased” value (20 mg (n = 3), Any grade)?
**A.** The value was 1 (33.3) n (%).

**Q.** And the “TRAE: Platelet count increased” value (20 mg (n = 3), Any grade)?
**A.** Its value is 0 n (%).

**Q.** And the “TRAE: Pyrexia” value (20 mg (n = 3), Any grade)?
**A.** Its value is 0 n (%).

**Q.** What about the “TEAE: Abdominal pain” value (20 mg (n = 3), Grade 3-5) of the same molecule?
**A.** Its value is 0 n (%).

**Q.** What about the “TEAE: Alanine aminotransferase increased” value (20 mg (n = 3), Grade 3-5) of the same molecule?
**A.** Its value is 0 n (%).

**Q.** What about the “TEAE: Anemia” value (20 mg (n = 3), Grade 3-5) of the same molecule?
**A.** The value was 0 n (%).

**Q.** And the “TEAE: Aspartate aminotransferase increased” value (20 mg (n = 3), Grade 3-5)?
**A.** The value was 0 n (%).

**Q.** And the “TEAE: C-reactive protein increased” value (20 mg (n = 3), Grade 3-5)?
**A.** Its value is 0 n (%).

**Q.** What about the “TEAE: Constipation” value (20 mg (n = 3), Grade 3-5) of the same molecule?
**A.** Its value is 0 n (%).

**Q.** What about the “TEAE: Fatigue” value (20 mg (n = 3), Grade 3-5) of the same molecule?
**A.** The value was 0 n (%).

**Q.** What about the “TEAE: Hyperuricemia” value (20 mg (n = 3), Grade 3-5) of the same molecule?
**A.** Its value is 0 n (%).

**Q.** What about the “TEAE: Hypoalbuminemia” value (20 mg (n = 3), Grade 3-5) of the same molecule?
**A.** Its value is 0 n (%).

**Q.** And the “TEAE: Leukocyte count increased” value (20 mg (n = 3), Grade 3-5)?
**A.** The value was 0 n (%).

**Q.** What about the “TEAE: Melanocytic nevus” value (20 mg (n = 3), Grade 3-5) of the same molecule?
**A.** The value was 0 n (%).

**Q.** And the “TEAE: Neutrophil count increased” value (20 mg (n = 3), Grade 3-5)?
**A.** The value was 0 n (%).

**Q.** What about the “TEAE: Pyrexia” value (20 mg (n = 3), Grade 3-5) of the same molecule?
**A.** Its value is 0 n (%).

**Q.** What about the TEAEs (20 mg (n = 3), Grade 3-5) of the same molecule?
**A.** The TEAEs was 0 n (%).

**Q.** What about the “TRAE: ALT increased” value (20 mg (n = 3), Grade 3-5) of the same molecule?
**A.** Its value is 0 n (%).

**Q.** And the “TRAE: AST increased” value (20 mg (n = 3), Grade 3-5)?
**A.** The value was 0 n (%).

**Q.** What about the “TRAE: Anemia” value (20 mg (n = 3), Grade 3-5) of the same molecule?
**A.** The value was 0 n (%).

**Q.** And the “TRAE: Blood creatinine increased” value (20 mg (n = 3), Grade 3-5)?
**A.** Its value is 0 n (%).

**Q.** And the “TRAE: Constipation” value (20 mg (n = 3), Grade 3-5)?
**A.** The value was 0 n (%).

**Q.** What about the “TRAE: Fatigue” value (20 mg (n = 3), Grade 3-5) of the same molecule?
**A.** Its value is 0 n (%).

**Q.** And the “TRAE: Hypoalbuminemia” value (20 mg (n = 3), Grade 3-5)?
**A.** The value was 0 n (%).

**Q.** What about the “TRAE: Leukocyte count increased” value (20 mg (n = 3), Grade 3-5) of the same molecule?
**A.** Its value is 0 n (%).

**Q.** And the “TRAE: Melanocytic nevus” value (20 mg (n = 3), Grade 3-5)?
**A.** The value was 0 n (%).

**Q.** And the “TRAE: Neutrophil count increased” value (20 mg (n = 3), Grade 3-5)?
**A.** The value was 0 n (%).

**Q.** What about the “TRAE: Platelet count increased” value (20 mg (n = 3), Grade 3-5) of the same molecule?
**A.** Its value is 0 n (%).

**Q.** What about the “TRAE: Pyrexia” value (20 mg (n = 3), Grade 3-5) of the same molecule?
**A.** Its value is 0 n (%).

**Q.** And the “TEAE: Abdominal pain” value (30 mg (n = 15), Any grade)?
**A.** The value was 5 (33.3) n (%).

**Q.** And the “TEAE: Alanine aminotransferase increased” value (30 mg (n = 15), Any grade)?
**A.** Its value is 6 (40.0) n (%).

**Q.** What about the “TEAE: Anemia” value (30 mg (n = 15), Any grade) of the same molecule?
**A.** Its value is 8 (53.3) n (%).

**Q.** What about the “TEAE: Aspartate aminotransferase increased” value (30 mg (n = 15), Any grade) of the same molecule?
**A.** The value was 7 (46.7) n (%).

**Q.** What about the “TEAE: C-reactive protein increased” value (30 mg (n = 15), Any grade) of the same molecule?
**A.** The value was 3 (20.0) n (%).

**Q.** And the “TEAE: Constipation” value (30 mg (n = 15), Any grade)?
**A.** Its value is 5 (33.3) n (%).

**Q.** And the “TEAE: Fatigue” value (30 mg (n = 15), Any grade)?
**A.** The value was 4 (26.7) n (%).

**Q.** What about the “TEAE: Hyperuricemia” value (30 mg (n = 15), Any grade) of the same molecule?
**A.** The value was 7 (46.7) n (%).

**Q.** What about the “TEAE: Hypoalbuminemia” value (30 mg (n = 15), Any grade) of the same molecule?
**A.** Its value is 4 (26.7) n (%).

**Q.** And the “TEAE: Leukocyte count increased” value (30 mg (n = 15), Any grade)?
**A.** Its value is 8 (53.3) n (%).

**Q.** And the “TEAE: Melanocytic nevus” value (30 mg (n = 15), Any grade)?
**A.** The value was 3 (20.0) n (%).

**Q.** And the “TEAE: Neutrophil count increased” value (30 mg (n = 15), Any grade)?
**A.** The value was 6 (40.0) n (%).

**Q.** And the “TEAE: Pyrexia” value (30 mg (n = 15), Any grade)?
**A.** The value was 5 (33.3) n (%).

**Q.** And the TEAEs (30 mg (n = 15), Any grade)?
**A.** Its TEAEs is 15 (100.0) n (%).

**Q.** What about the “TRAE: ALT increased” value (30 mg (n = 15), Any grade) of the same molecule?
**A.** The value was 4 (26.7) n (%).
